Values after ≈ are worked out from the molar mass of the structure shown. Values joined by “and” are separate entries in the source; they are usually repeats but may differ in a detail not shown here. Identical values can stand only once. Like-named read-outs stand apart in the source and are kept apart here.
Key:
Assay type in all cases: cell-based
[1] = tested on: HIV-1/184-Val; assay: inhibition of syncytium formation in CEM cells, HIV-1 RT mutant 184-Val; conditions: Human immunodeficiency virus 1, CCRF-CEM, 96 h, read-out: EC50 184-Val
Excerpt: (§1) CEM cells were obtained from the American Tissue Cell Culture Collection (Rockville, Md.) . HIV-1 (IIIB) was originally obtained from the culture supernatant of persistently HIV-1-infected H9 cells and was provided by R. C. Gallo and M. Popovic (National Cancer Institute, National Institutes of Health, Bethesda, Md.).
(§2) The selection and characterization of the HIV-1 RT mutant strains were done as follows: HIV-1/100-Ile ("100-Ile") was selected for resistance against TIBO R82150 as described in Balzarini et al, Virology 192: 246-253 (1993); HIV-1/103-Asn ("103-Asn") was selected for resistance against TIBO R82913 as described in Balzarini et al, Virology 192: 246-253 (1993); HIV-1/106-Ala ("106-Ala") was selected for resistance against nevirapine as described in Balzarini et al, J. Virol. 67: 5353-5359 (1993); HIV-1/Lys-138 ("Lys-138") was selected for resistance against TSAO-m^3T as described in Balzarini et al, Virology 192: 246-253 (1993) and Balzarini et al, Proc. Nat. Acad. Sci. USA 90: 6952-6956 (1993); HIV-1/181-Cys ("181-Cys") was selected for resistance against pyridinone L-697,661 as described in Balzarini et al, Virology 192: 246-253 (1993); and HIV-1/188-His ("188-His") was selected for resistance against HEPT as described in Balzarini et al, Mol. Pharmocol. 44: 694-701 (1993). 188-His was then further converted to HIV-1/188-Leu ("188-Leu") upon further passage in cell culture in the absence of the HEPT. HIV-1/101-Glu ("101-Glu") and HIV-1/190-Glu ("190-Glu") were selected for resistance against the thiocarboxanilide derivative designated as UC38 as described in Balzarini et al, Antiviral Research 27: 219-236 (1995). HIV-1/184-Ile ("184-Ile") was selected for resistance against the combination of 3TC and TSAO-m^3 T as described in Balzarini et al, Molecular Pharm. 49: 882-890 (1996). HIV-1/184-Val ("184-Val") was selected for resistance against 3TC as described in Balzarini et al, Molecular Pharm. 49: 882-890 (1996).
(§3) CEM cells were suspended at ≈300,000 cells per ml of culture medium and infected with approximately 100 CCID50 (CCID50 being the 50% cell culture infective dose) of HIV-1(IIIB) (designated as "WT" in Table 3) or one of the HIV-1 RT mutant strains described above. Then 100 μl of the infected cell suspensions was added to 200 μl microtiter plate wells containing 100 μl of appropriate serial (5-fold) dilutions of the test compounds. The inhibitiory effect of the test compounds on HIV-1 induced syncytium formation in CEM cells was examined microscopically on day 4 post infection. The 50% effective concentration (EC50) was defined as the test compound concentration that inhibits syncytium formation in the HIV-1-infected cell cultures by 50%.

[2] = tested on: HIV-1/184-Ile; assay: inhibition of syncytium formation in CEM cells, HIV-1 RT mutant 184-Ile; conditions: Human immunodeficiency virus 1, CCRF-CEM, 96 h, read-out: EC50 184-IIe
Excerpt: as §1, §2, §3

[3] = tested on: HIV-1/106-Ala; assay: inhibition of syncytium formation in CEM cells, HIV-1 RT mutant 106-Ala; conditions: Human immunodeficiency virus 1, CCRF-CEM, 96 h, read-out: EC50 106-Ala
Excerpt: as §1, §2, §3

[4] = tested on: 138-Lys; assay: inhibition of syncytium formation in CEM cells, HIV-1 RT mutant 138-Lys; conditions: Human immunodeficiency virus 1, CCRF-CEM, 96 h, read-out: EC50 138-Lys
Excerpt: as §1, §2, §3

[5] = tested on: HIV-1/181-Cys; assay: inhibition of syncytium formation in CEM cells, HIV-1 RT mutant 181-Cys; conditions: Human immunodeficiency virus 1, CCRF-CEM, 96 h, read-out: EC50 181-Cys
Excerpt: as §1, §2, §3

[6] = tested on: HIV-1/100-Ile; assay: inhibition of syncytium formation in CEM cells, HIV-1 RT mutant 100-Ile; conditions: Human immunodeficiency virus 1, CCRF-CEM, 96 h, read-out: EC50 100-Ile
Excerpt: as §1, §2, §3

[7] = tested on: HIV-1/190-Glu; assay: inhibition of syncytium formation in CEM cells, HIV-1 RT mutant 190-Glu; conditions: Human immunodeficiency virus 1, CCRF-CEM, 96 h, read-out: EC50 190-Glu
Excerpt: as §1, §2, §3

[8] = tested on: 103-Ala; assay: inhibition of syncytium formation in CEM cells, HIV-1 RT mutant 103-Ala; conditions: Human immunodeficiency virus 1, CCRF-CEM, 96 h, read-out: EC50 103-Ala
[9] = tested on: HIV-1/188-His; assay: inhibition of syncytium formation in CEM cells, HIV-1 RT mutant 188-His; conditions: Human immunodeficiency virus 1, CCRF-CEM, 96 h, read-out: EC50 188-His
Excerpt: as §1, §2, §3

[10] = tested on: HIV-1/188-Leu; assay: inhibition of syncytium formation in CEM cells, HIV-1 RT mutant 188-Leu; conditions: Human immunodeficiency virus 1, CCRF-CEM, 96 h, read-out: EC50 188-Leu
Excerpt: as §1, §2, §3

[11] = tested on: HIV-1 (IIIB); assay: inhibition of HIV-1(IIIB) (WT) induced syncytium formation in CEM cells
Excerpt: as §1, §3

[12] = tested on: HIV-1/101-Glu; assay: inhibition of syncytium formation in CEM cells, HIV-1 RT mutant 101-Glu; conditions: Human immunodeficiency virus 1, CCRF-CEM, 96 h, read-out: EC50 101-Glu
Excerpt: as §1, §2, §3

[13] = Human immunodeficiency virus 1, IIIB, CCRF-CEM, 96 h, Table 2, day 4 post infection, replicate values, read-out: EC50, Activity Against HIV-1 (IIIB)
[14] = Human immunodeficiency virus 1, IIIB, CCRF-CEM, 96 h, Table 3, HIV-1(IIIB), day 4 post infection, read-out: EC50 WT
[15] = Table 2, day 4 post infection, replicate values, read-out: EC50, Activity Against HIV-1 (IIIB)

| Structure (SMILES) | EC50 [1] [µg/mL] | EC50 [2] [µg/mL] | EC50 [3] [µg/mL] | EC50 [4] [µg/mL] | EC50 [5] [µg/mL] | EC50 [6] [µg/mL] | EC50 [7] [µg/mL] | EC50 [8] [µg/mL] | EC50 [9] [µg/mL] | EC50 [10] [µg/mL] | EC50 [11, 13] [nM] | EC50 [11, 14] [µg/mL] | EC50 [12] [µg/mL] | EC50 [11, 15] |
| --- | --- | --- | --- | --- | --- | --- | --- | --- | --- | --- | --- | --- | --- | --- |
| Cc1ccccc1OCc1cc(NC(=S)c2ccoc2C)ccc1Cl [Compound 8] | 0.02 | 0.065 | 1 | 0.19 | 0.95 | 0.33 | ≥ 2 | 2 (≈ 5.38 µM) | 0.5 | 0.7 | 107 | 0.022 | 1.5 |  |
| Cc1occc1C(=S)Nc1ccc(Cl)c(COc2ccccc2C#N)c1 [Compound 30] | 0.021 | 0.03 | 0.7 | 0.042 | 0.65 | 0.33 | > 2 | > 2 | 0.35 | 0.85 | 63.5 | 0.006 | 0.63 | 68.7 nM and 103 nM |
| COc1ccccc1OCc1cc(NC(=S)c2ccoc2C)ccc1Cl [Compound 22] | 0.018 | 0.025 | 1 | 0.075 | 0.41 | 0.4 | > 2 | 2.73 (≈ 7.04 µM) | 0.85 | > 2 | 160 | 0.011 | 0.75 | 209 nM |
| Cc1occc1C(=S)Nc1ccc(Cl)c(COc2ccccc2Br)c1 [Compound 40] | 0.018 | 0.04 | 0.85 | 0.09 | 0.75 | 1.73 | > 2 | > 2 | 0.4 | 0.7 |  | 0.02 | 0.4 | 35.3 nM and 46 nM and 16.8 nM |
| Cc1occc1C(=S)Nc1ccc(Cl)c(COc2ccccc2C(F)(F)F)c1 [Compound 46] | 0.0093 | 0.018 | 0.47 | 0.03 | 0.5 | 0.11 | > 2 | 0.55 (≈ 1.29 µM) | 0.16 | 0.19 |  | 0.0041 | 0.18 | 39.3 nM and 54.8 nM and 9.14 nM |
| Cc1occc1C(=S)Nc1ccc(Cl)c(COc2ccc(F)cc2Cl)c1 [Compound 47] | 0.05 | 0.12 | > 2 | 0.64 | 1 | 0.65 | > 2 | > 2 | 2 | > 2 | 1030 | 0.018 | 1.47 | 516 nM |
| Cc1occc1C(=S)Nc1ccc(Cl)c(COc2ccccc2CO)c1 [Compound 25] | 0.25 | 1 | > 2 | > 2 | > 2 | > 2 | > 2 | > 2 | > 2 | > 2 |  | 0.55 | > 2 | 3140 nM and 1090 nM and 1490 nM and 1150 nM and 1000 nM |
| Cc1occc1C(=S)Nc1ccc(Cl)c(COc2cccc(Cl)c2)c1 [Compound 7] | 0.1 | 0.4 |  | 0.33 | 0.44 | 0.65 | ≥ 10 | ≥ 2 | 0.95 |  |  | 0.09 | 2 | 68.2 nM and 52.5 nM and 432 nM |
| Cc1occc1C(=S)Nc1ccc(Cl)c(COc2ccccc2Cl)c1 [Compound 6, N-3-((2-chlorophenoxy)methyl)-4-chlorophenyl-2-methyl-3-furancarbothioamide] | 0.018 | 0.047 |  | 0.025 | 0.09 | 0.23 | > 2 | 1.2 (≈ 3.06 µM) | 0.053 |  | 58.6 | 0.0067 | 0.11 | 104 nM |
| Cc1occc1C(=S)Nc1ccc(Cl)c(COc2cccc(C(F)(F)F)c2)c1 [Compound 5] | 0.93 | > 2 |  | 1.73 | 0.33 | > 2 | > 2 | > 2 | > 2 |  | 3880 | 0.5 | > 2 | 4110 nM and 3840 nM |
